Measured values as given in US8735398B2 (Bristol-Myers Squibb Company, priority 2009, dated 2014).
Like-named read-outs stand apart in the source and are kept apart here.

Test system: HCV 1b genotype
Assay: HCV replicon assay (HCV-neo replicon cells, wild-type)
Format: cell-based, Hepatitis C virus
Settings: HCV 1b genotype replicon
Experimental: An HCV Replicon assay was utilized in the present disclosure, and was prepared, conducted and validated as described in commonly owned PCT/US2006/022197 and in O'Boyle et al., Antimicrob. Agents Chemother, 49(4):1346-1353 (April 2005). Assay methods incorporating luciferase reporters have also been used as described (Apath.com).
HCV-neo replicon cells and replicon cells containing resistance substitutions in the NS5A region were used to test the currently described family of compounds.
The compounds were determined to have differing degrees of reduced inhibitory activity on cells containing mutations vs. the corresponding inhibitory potency against wild-type cells. Thus, the compounds of the present disclosure can be effective in inhibiting the function of the HCV NS5A protein and are understood to be as effective in combinations as previously described in application PCT/US2006/022197 and commonly owned WO 04/014852. It should be understood that the compounds of the present disclosure can inhibit multiple genotypes of HCV. […] In one embodiment, compounds of the present disclosure are inhibitory versus 1a, 1b, 2a, 2b, 3a, 4a, and 5a genotypes.

[1] = Hepatitis C virus, class symbol, read-out: EC50 Range against HCV 1b
[2] = Hepatitis C virus, class symbols, read-out: EC50 Range against HCV 1b
[3] = Hepatitis C virus, read-out: EC50 1b
[4] = class symbol, read-out: EC50 Range against HCV 1b

Compound | EC50 [1] | EC50 [2] | further results
O=C(Nc1ccc(-c2cnc(-c3ccc(NC(=O)[C@@H]4CCCN4C(=O)C(O)c4nccs4)cc3)o2)cc1)[C@@H]1CCCN1C(=O)C(O)c1nccs1 (stereo partly drawn) [Example D-10, (2S,2′S)-N,N′-(1,3-oxazole-2,5-diyldi-4,1-phenylene)bis(1-(hydroxy(1,3-thiazol-2-yl)acetyl)-2-pyrrolidinecarboxamide)] | 0.1 to 0.999 µM |  | 
O=C(Nc1ccc(-c2cnc(-c3ccc(NC(=O)[C@@H]4CCCN4C(=O)C(O)c4cccnc4)cc3)o2)cc1)[C@@H]1CCCN1C(=O)C(O)c1cccnc1 (stereo partly drawn) [JR-7, (2S,2′S)-N,N′-(2,5-oxazolediyldi-4,1-phenylene)bis[1-(hydroxy-3-pyridinylacetyl)-2-pyrrolidinecarboxamide]] |  | 0.00457 to 0.099 µM | 
Cc1cccc(CC(=O)N2C[C@H](OC(C)(C)C)C[C@H]2C(=O)Nc2ccc(-c3cnc(-c4ccc(NC(=O)[C@@H]5C[C@@H](OC(C)(C)C)CN5C(=O)Cc5cccc(C)c5)cc4)o3)cc2)c1 [XY-69, (2S,4R,2′S,4′R)-N,N′-(1,3-oxazole-2,5-diyldi-4,1-phenylene)bis(4-tert-butoxy-1-((3-methylphenyl)acetyl)-2-pyrrolidinecarboxamide)] |  | 0.1 to 0.999 µM | 
Cc1ncccc1C(=O)N1CCC[C@H]1C(=O)Nc1ccc(-c2cnc(-c3ccc(NC(=O)[C@@H]4CCCN4C(=O)c4cccnc4C)cc3)o2)cc1 [XY-30, (2S,2′S)-N,N′-(1,3-oxazole-2,5-diyldi-4,1-phenylene)bis(1-((2-methyl-3-pyridinyl)carbonyl)-2-pyrrolidinecarboxamide)] |  | 1 to 10 µM | 
CC(=O)N1CCC[C@H]1C(=O)Nc1ccc(-c2nnc(-c3ccc(NC(=O)[C@@H]4CCCN4C(=O)Cc4cccnc4)cc3)o2)cc1 [Example D-64, (2S)-1-acetyl-N-[4-[5-[4-[[[(2S)-1-(3-pyridinylacetyl)-2-pyrrolidinyl]carbonyl]amino]phenyl]-1,3,4-oxadiazol-2-yl]phenyl]-2-pyrrolidinecarboxamide] | 1 to 10 µM |  | EC50 [3]: 6.57 µM
CN(C)C(C(=O)N1CCC[C@H]1C(=O)Nc1ccc(-c2cnc(-c3ccc(NC(=O)[C@@H]4CCCN4C(=O)C(c4ccc(F)cc4F)N(C)C)cc3)o2)cc1)c1ccc(F)cc1F (stereo partly drawn) [Example D-5, (2S,2′S)-N,N′-(2,5-oxazolediyldi-4,1-phenylene)bis[1-[(2,4-difluorophenyl)(dimethylamino)acetyl]-2-pyrrolidinecarboxamide]] | < 0.00457 µM |  | 
CO[C@H](C(=O)N1CCC[C@H]1C(=O)Nc1ccc(-c2cc(-c3ccc(NC(=O)[C@@H]4CCCN4C(=O)[C@@H](OC)c4ccccc4)cc3)[nH]n2)cc1)c1ccccc1 [JG-38, (2S,2′S)-N,N′-(1H-pyrazole-3,5-diyldi-4,1-phenylene)bis(1-((2S)-2-methoxy-2-phenylacetyl)-2-pyrrolidinecarboxamide)] | < 0.00457 µM |  | 
O=C(Nc1ccc(-c2cnc(-c3ccc(NC(=O)[C@@H]4CCCN4C(=O)[C@H](O)c4ccccc4)cc3)o2)cc1)[C@@H]1CCCN1C(=O)[C@H](O)c1ccccc1 [JG-23, (2S,2′S)-N,N′-(1,3-oxazole-2,5-diyldi-4,1-phenylene)bis(1-((2R)-2-hydroxy-2-phenylacetyl)-2-pyrrolidinecarboxamide)] | < 0.00457 µM |  | 
CC(C)(C)OC(=O)N1CCCC1(Cc1ccccc1)C(=O)N1CCC[C@H]1C(=O)Nc1ccc(-c2cnc(-c3ccc(NC(=O)[C@@H]4CCCN4C(=O)C4(Cc5ccccc5)CCCN4C(=O)OC(C)(C)C)cc3)o2)cc1 (stereo partly drawn) [Example D-32, di-tert-butyl 2,2′-(1,3-oxazole-2,5-diylbis(4,1-phenylenecarbamoyl(2S)-2,1-pyrrolidinediylcarbonyl))bis(2-benzyl-1-pyrrolidinecarboxylate)] |  |  | EC50 [4]: 1 to 10 µM
CC(=O)N1CCC[C@H]1C(=O)Nc1ccc(-c2nnc(-c3ccc(NC(=O)[C@@H]4CCCN4C(C)=O)cc3)o2)cc1 [Example D-55, (2S,2′S)-N,N′-(1,3,4-oxadiazole-2,5-diyldi-4,1-phenylene)bis[1-acetyl-2-pyrrolidinecarboxamide]] | 1 to 10 µM |  | EC50 [3]: 10 µM
O=C(Nc1ccc(-c2cnc(-c3ccc(NC(=O)[C@@H]4CCCN4C(=O)CN4C(=O)OC[C@@H]4c4ccccc4)cc3)o2)cc1)[C@@H]1CCCN1C(=O)CN1C(=O)OC[C@@H]1c1ccccc1 [JR-20, (2S,2′S)-N,N′-(2,5-oxazolediyldi-4,1-phenylene)bis[1-[[(4S)-2-oxo-4-phenyl-3-oxazolidinyl]acetyl]-2-pyrrolidinecarboxamide]] |  | 1 to 10 µM | 
CC(O)(C(=O)N1C(C(=O)Nc2ccc(-c3cnc(-c4ccc(NC(=O)C5CC6CC6N5C(=O)C(C)(O)c5ccccc5)cc4)o3)cc2)CC2CC21)c1ccccc1 [CB-10, (1S,3S,5S,1′S,3′S,5′S)-N,N′-(1,3-oxazole-2,5-diyldi-4,1-phenylene)bis(2-((2R)-2-hydroxy-2-phenylpropanoyl)-2-azabicyclo[3.1.0]hexane-3-carboxamide)] |  |  | EC50 [4]: < 0.00457 µM
CN(C)[C@@H](C(=O)N1CCC[C@H]1C(=O)Nc1ccc(-c2ccc(-c3ccc(NC(=O)[C@@H]4CCCN4C(=O)[C@@H](c4ccccc4)N(C)C)cc3)o2)cc1)c1ccccc1 [JG-63, (2S,2′S)-N,N′-(2,5-furandiyldi-4,1-phenylene)bis(1-((2R)-2-(dimethylamino)-2-phenylacetyl)-2-pyrrolidinecarboxamide)] | < 0.00457 µM |  | 
O=C(Nc1ccc(-c2cc(-c3ccc(NC(=O)[C@@H]4CCCN4C(=O)[C@H](O)c4ccccc4Cl)cc3)[nH]n2)cc1)[C@@H]1CCCN1C(=O)[C@H](O)c1ccccc1Cl [JG-36, (2S,2′S)-N,N′-(1H-pyrazole-3,5-diyldi-4,1-phenylene)bis(1-((2R)-2-(2-chlorophenyl)-2-hydroxyacetyl)-2-pyrrolidinecarboxamide)] | < 0.00457 µM |  | 
CC(=O)N1CCC[C@H]1C(=O)Nc1ccc(-c2cc(-c3ccc(NC(=O)[C@@H]4CCCN4C(=O)Cc4ccccc4)cc3)n[nH]2)cc1 [OL-36, (2S)-1-acetyl-N-(4-(3-(4-((((2S)-1-(phenylacetyl)-2-pyrrolidinyl)carbonyl)amino)phenyl)-1H-pyrazol-5-yl)phenyl)-2-pyrrolidinecarboxamide] | 0.1 to 0.999 µM |  | 
O=C(Nc1ccc(-c2cnc(-c3ccc(NC(=O)[C@@H]4CCCN4C(=O)Cc4ccc(F)cc4)cc3)o2)cc1)[C@@H]1CCCN1C(=O)Cc1ccc(F)cc1 [XY-22, (2S,2′S)-N,N′-(1,3-oxazole-2,5-diyldi-4,1-phenylene)bis(1-((4-fluorophenyl)acetyl)-2-pyrrolidinecarboxamide)] |  | < 0.00457 µM | EC50 [3]: < 0.0045 µM
CC(=O)N1CCC[C@H]1C(=O)Nc1ccc(-c2nc(-c3ccc(NC(=O)[C@@H]4C=CCN4C(=O)[C@H]4CCCO4)cc3)cs2)cc1 [Example D-51, (2S)-N-[4-[2-[4-[[[(2S)-1-acetyl-2-pyrrolidinyl]carbonyl]amino]phenyl]-4-thiazolyl]phenyl]-2,5-dihydro-1-[[(2R)-tetrahydro-2-furanyl]carbonyl]-1H-pyrrole-2-carboxamide] | 1 to 10 µM |  | EC50 [3]: 3.43 µM
Cn1cnc(CC(=O)N2CCC[C@H]2C(=O)Nc2ccc(-c3cnc(-c4ccc(NC(=O)[C@@H]5CCCN5C(=O)Cc5cn(C)cn5)cc4)o3)cc2)c1 [XY-42, (2S,2′S)-N,N′-(1,3-oxazole-2,5-diyldi-4,1-phenylene)bis(1-((1-methyl-1H-imidazol-4-yl)acetyl)-2-pyrrolidinecarboxamide)] |  | 1 to 10 µM | 
CCCC(C)(C)C(=O)N1CCC[C@H]1C(=O)Nc1ccc(-c2cnc(-c3ccc(NC(=O)[C@@H]4CCCN4C(=O)C(C)(C)CCC)cc3)o2)cc1 [XY-19, (2S,2′S)-N,N′-(1,3-oxazole-2,5-diyldi-4,1-phenylene)bis(1-(2,2-dimethylpentanoyl)-2-pyrrolidinecarboxamide)] |  | 1 to 10 µM | 
CC1(C)CC(C)(C(=O)N2CCC[C@H]2C(=O)Nc2ccc(-c3cnc(-c4ccc(NC(=O)[C@@H]5CCCN5C(=O)C5(C)CC(C)(C)C(=O)N5)cc4)o3)cc2)NC1=O (stereo partly drawn) [Example D-25, (2S,2′S)-N,N′-(4,4′-(oxazole-2,5-diyl)bis(4,1-phenylene))bis(1-(2,4,4-trimethyl-5-oxopyrrolidine-2-carbonyl)pyrrolidine-2-carboxamide)] |  |  | EC50 [4]: 1 to 10 µM; EC50 (read-out: EC50 1b): 5.33 µM
O=C(Nc1ccc(-c2cnc(-c3ccc(NC(=O)[C@@H]4CCCN4C(=O)C(O)Cc4c[nH]c5ccccc45)cc3)o2)cc1)[C@@H]1CCCN1C(=O)C(O)Cc1c[nH]c2ccccc12 (stereo partly drawn) [JR-5, (2S,2′S)-N,N′-(2,5-oxazolediyldi-4,1-phenylene)bis[1-[2-hydroxy-3-(1H-indol-3-yl)-1-oxopropyl]-2-pyrrolidinecarboxamide]] |  | 0.1 to 0.999 µM | 
O=C(Nc1ccc(-c2cc(-c3ccc(NC(=O)[C@@H]4CCCN4C(=O)c4nc5ccccc5s4)cc3)[nH]n2)cc1)[C@@H]1CCCN1C(=O)c1nc2ccccc2s1 [JG-41, (2S,2′S)-N,N′-(1H-pyrazole-3,5-diyldi-4,1-phenylene)bis(1-(1,3-benzothiazol-2-ylcarbonyl)-2-pyrrolidinecarboxamide)] | 0.1 to 0.999 µM |  | 
O=C(Nc1ccc(-c2ccc(-c3ccc(NC(=O)[C@@H]4CCCN4C(=O)c4nccc5ccccc45)cc3)o2)cc1)[C@@H]1CCCN1C(=O)c1nccc2ccccc12 [JG-62, (2S,2′S)-N,N′-(2,5-furandiyldi-4,1-phenylene)bis(1-(1-isoquinolinylcarbonyl)-2-pyrrolidinecarboxamide)] | 0.1 to 0.999 µM |  | 
